From ChEMBL document CHEMBL4819024, “Synthesis and evaluation of andrographolide derivatives as potent anti-osteoporosis agents in vitro and in vivo” (Eur J Med Chem, 2021)
Activity calls are given as the source filed them. The rule behind the calls is not given here.

Experiments:
BMMC = test: Anti-osteoporosis activity in C57BL/6 mouse BMM cells assessed as inhibition of M-CSF/RANKL-induced osteoclastogenesis by measuring reduction in multinucleated TRAP+ cells incubated for 5 days with media replenishment for every 48 hrs measured by TRAP-staining based analysis; assay type: functional, cell-based; details: C57BL/6, BMMC
RAW264.7 = test: Effect on NFkappaB p65 expression in RANKL-stimulated mouse RAW264.7 cells at 1 to 10 uM preincubated for 4 hrs followed by RANKL stimulation for 10 mins and measured by Western blot analysis; assay type: functional; details: dose 1-10 µM, time 250.0 min
Mus musculus [1] = test: Antiosteoporotic activity against OVX-induced bone loss C57BL/6 mouse model assessed as increase in bone volume/total bone volume in femoral metaphysis at 10 mg/kg, po QD for 4 weeks; assay type: functional, organism-based; details: dose 10.0 mg/kg/day
Mus musculus [2] = test: Antiosteoporotic activity against OVX-induced bone loss C57BL/6 mouse model assessed as increase in trabecular thickness in femoral metaphysis at 10 mg/kg, po QD for 4 weeks; assay type: functional, organism-based; details: dose 10.0 mg/kg/day
Mus musculus [3] = test: Antiosteoporotic activity against OVX-induced bone loss C57BL/6 mouse model assessed as decrease in ACP5 level in serum at 10 mg/kg, po QD for 4 weeks; assay type: functional, organism-based; details: dose 10.0 mg/kg/day
Mus musculus [4] = test: Antiosteoporotic activity against OVX-induced bone loss C57BL/6 mouse model assessed as restoration of E2 level in serum at 10 mg/kg, po QD for 4 weeks; assay type: functional, organism-based; details: dose 10.0 mg/kg/day
[5] = target: c-Jun N-terminal kinase (Mus musculus) (UniProt Q91Y86+Q9WTU6+Q61831); test: Inhibition of RANKL-induced JNK phosphorylation in mouse RAW264.7 cells at 1 to 10 uM pretreated for 4 hrs prior to RANKL stimulation for 20 mins by western blot analysis; assay type: cell-based; details: dose 1-10 µM, time 260.0 min
[6] = Toxicity in OVX-induced bone loss C57BL/6 mouse model assessed as effect on heart morphology at 10 mg/kg, po QD for 4 weeks; assay type: organism-based; details: in vivo, 672 h
[7] = Toxicity in OVX-induced bone loss C57BL/6 mouse model assessed as effect on kidney morphology at 10 mg/kg, po QD for 4 weeks; assay type: organism-based; details: in vivo, 672 h
[8] = Toxicity in OVX-induced bone loss C57BL/6 mouse model assessed as effect on thymus morphology at 10 mg/kg, po QD for 4 weeks; assay type: organism-based; details: in vivo, 672 h, dose 10 mg/kg/day
[9] = Toxicity in OVX-induced bone loss C57BL/6 mouse model assessed as effect on serum ALT level at 10 mg/kg, po QD for 4 weeks; assay type: organism-based; details: in vivo, 672 h, dose 10 mg/kg/day
[10] = Toxicity in OVX-induced bone loss C57BL/6 mouse model assessed as effect on serum ALP level at 10 mg/kg, po QD for 4 weeks; assay type: organism-based; details: in vivo, 672 h, dose 10 mg/kg/day

Chain of c-Jun N-terminal kinase (Mus musculus) (Q61831 whole entry, looked up): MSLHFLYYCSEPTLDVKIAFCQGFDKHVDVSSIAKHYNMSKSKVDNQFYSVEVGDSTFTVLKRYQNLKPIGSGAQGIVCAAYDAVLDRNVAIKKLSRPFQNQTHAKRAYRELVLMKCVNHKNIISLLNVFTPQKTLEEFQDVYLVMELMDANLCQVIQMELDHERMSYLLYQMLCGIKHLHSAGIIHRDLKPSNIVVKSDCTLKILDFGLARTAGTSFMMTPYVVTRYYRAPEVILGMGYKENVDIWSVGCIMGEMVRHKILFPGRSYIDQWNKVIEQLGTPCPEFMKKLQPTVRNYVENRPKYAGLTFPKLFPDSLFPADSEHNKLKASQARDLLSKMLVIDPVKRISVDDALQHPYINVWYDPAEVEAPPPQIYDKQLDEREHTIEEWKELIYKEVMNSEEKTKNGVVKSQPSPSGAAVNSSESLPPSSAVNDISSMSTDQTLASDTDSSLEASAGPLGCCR
Chain of c-Jun N-terminal kinase (Mus musculus) (Q91Y86 whole entry, looked up): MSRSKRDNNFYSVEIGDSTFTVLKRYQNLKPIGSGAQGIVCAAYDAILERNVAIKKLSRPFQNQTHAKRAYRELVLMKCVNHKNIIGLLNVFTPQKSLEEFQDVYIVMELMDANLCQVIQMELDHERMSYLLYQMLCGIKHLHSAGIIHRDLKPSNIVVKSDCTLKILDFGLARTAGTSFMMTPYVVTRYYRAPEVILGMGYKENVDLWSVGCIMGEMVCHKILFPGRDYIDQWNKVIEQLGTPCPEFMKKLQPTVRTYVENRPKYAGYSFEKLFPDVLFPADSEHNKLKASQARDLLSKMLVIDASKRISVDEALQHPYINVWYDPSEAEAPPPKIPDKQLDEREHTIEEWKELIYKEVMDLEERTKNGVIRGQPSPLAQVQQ
Chain of c-Jun N-terminal kinase (Mus musculus) (Q9WTU6 whole entry, looked up): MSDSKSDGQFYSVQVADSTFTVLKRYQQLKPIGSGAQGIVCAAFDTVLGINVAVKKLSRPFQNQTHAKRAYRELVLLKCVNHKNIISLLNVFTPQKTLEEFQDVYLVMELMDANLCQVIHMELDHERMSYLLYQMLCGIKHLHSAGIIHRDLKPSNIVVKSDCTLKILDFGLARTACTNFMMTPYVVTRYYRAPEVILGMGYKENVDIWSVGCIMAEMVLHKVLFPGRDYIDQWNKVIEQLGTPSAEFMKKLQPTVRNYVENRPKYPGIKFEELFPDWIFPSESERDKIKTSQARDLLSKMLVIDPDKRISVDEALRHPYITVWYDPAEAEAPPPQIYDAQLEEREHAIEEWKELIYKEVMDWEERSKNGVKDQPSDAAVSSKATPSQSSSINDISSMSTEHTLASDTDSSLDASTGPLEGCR

C=C1CC[C@@H]2[C@](C)(CNCc3ccc(F)cc3)[C@H](O)CC[C@@]2(C)[C@@H]1/C=C/C1=CCOC1=O
IC50 (BMMC): 0.35 µM
Activity (RAW264.7): inactive
Activity (Mus musculus [1]): Active
Activity (Mus musculus [2]): Active
Activity (Mus musculus [3]): Active
Activity (Mus musculus [4]): Active
inhibition [5]: inactive
Activity [6]: Non-Toxic
Activity [7]: Non-Toxic
Activity [8]: Non-Toxic
Activity [9]: Non-Toxic
Activity [10]: Non-Toxic
